The results in this text go back to patent US20130130903A1, “Suppression of Foliar and Soilborne Pathogens” (priority 2003, published 2013).

The test system of assay [1] is non-inoculated wheat. Kind of assay: Field yield of non-inoculated spring wheat after herbicide treatment. Particulars: for Yield: 2002, non-inoculated, glyphosate on glyphosate res. wheat, Buctril/Harmony on sensitive wheat. The class given is in vivo. The text has this:
(§1) This example describes the response of glyphosate resistant and glyphosate sensitive spring wheat to inoculation with soil pathogens as judged by wheat yield. Inoculation simulates the green-bridge effect of dying weeds and volunteer in a standing wheat crop. The soil pathogens assessed were: Rhizoctonia solani isolate AG-8 and Gaeumannomyces graminis var. tritici. These pathogenic strains are prevalent in the Pacific Northwest and were isolated from the region. They have been maintained by the Department of Plant Pathology and USDA researchers at Washington State University.
(§2) Near isogenic lines (glyphosate resistant and glyphosate sensitive) of Westbred 926 and Bobwhite were seeded using a no-till drill at three different sites (Lind, Davenport and Pullman, Wash.).
(§3) To introduce the root pathogens into the wheat seed for distribution into the field, oat seeds, autoclaved and sterilized, were inoculated for each soilborne pathogen using isolated pathogen cultures. Oat seeds that were non-inoculated, but sterilized and autoclaved, served as a control. Following two weeks of pathogen growth, the inoculated oat seeds were dried down for 2 days and screened for potential contamination. To establish a green-bridge, a mixture of 15% barley and 20% oat inoculum seeds (by weight) were planted using a small plot no-till drill. One week after planting the introduced green-bridge, the wheat isolines were planted in rows adjacent to the barley green-bridge rows in a randomized, split-plot design, replicated in five randomized blocks. Inoculum treatment served as the main plot, and response to herbicides as the subplot factor.
(§4) This example describes the effect of herbicide treatment on spring wheat, averaged over all disease treatments, planted as described in Example 1. The appropriate herbicide was applied to each trial once the plants reached the 4-5 leaf stage with a custom built hand-pulled sprayer outfitted with a boom with a length of 16 feet with spray shields on the side to minimize drift. In this manner, an entire plot was treated at once with the appropriate herbicide rate. Entries that were resistant to glyphosate were treated with ROUNDUP® brand herbicide (0.63 kg/ha), available from Monsanto, St. Louis, Mo. Herbicide sensitive and resistant entries were treated with a common broadleaf herbicide treatment (Buctril/Harmony) or a no-spray control. Introduced green-bridge barley and any other weeds were manually removed 7-10 days after spray treatment to simulate the time required for ROUNDUP to take effect and maintained weed-free conditions to provide an accurate comparison to commercial weed management strategies needed to assess potential herbicide/disease interactions. […]

For assay [2], the system named is Gaeumannomyces graminis var. tritici (Ggt). Kind of assay: Field yield of Ggt inoculated spring wheat after herbicide treatment. Particulars: for Yield: Ggt inoculated, glyphosate on glyphosate res. wheat, Buctril/Harmony on sensitive wheat. Format: in vivo.
Excerpt: as §1, §2, §3, §4

For assay [3], the system named is stripe rust. Nature of the assay: Bobwhite NILs under natural stripe rust infection, Pullman 2002. The class given is in vivo, Puccinia striiformis. Particulars: for Yield: Pullman 2002, cultivar Bobwhite (res.).
Excerpt: as §1, §2, §3
This example describes the effect of herbicide treatment on spring wheat, averaged over all disease treatments, planted as described in Example 1. The appropriate herbicide was applied to each trial once the plants reached the 4-5 leaf stage with a custom built hand-pulled sprayer outfitted with a boom with a length of 16 feet with spray shields on the side to minimize drift. In this manner, an entire plot was treated at once with the appropriate herbicide rate. Entries that were resistant to glyphosate were treated with ROUNDUP® brand herbicide (0.63 kg/ha), available from Monsanto, St. Louis, Mo. Herbicide sensitive and resistant entries were treated with a common broadleaf herbicide treatment (Buctril/Harmony) or a no-spray control. Introduced green-bridge barley and any other weeds were manually removed 7-10 days after spray treatment to simulate the time required for ROUNDUP to take effect and maintained weed-free conditions to provide an accurate comparison to commercial weed management strategies needed to assess potential herbicide/disease interactions.
This example describes the effect of herbicides on natural stripe rust infection of NILs of Bobwhite with and without glyphosate tolerance. The wheat was seeded and inoculated with Rhizoctonia and Ggt as described in Example 1. The yield results from the Pullman site are recorded in Table 6.

For assay [4], the system named is soybean rust. Kind of assay: Suppression of soybean rust on glyphosate resistant soybean lines. Format: in vivo. The text has this: This example describes the suppression of soybean rust using glyphosate treatment of glyphosate resistant soybean varieties.
Two different Roundup Ready soybean lines were used: Line 1 (purple flowers/grey pubescence) and Line 2 (white flowers/grey pubescence). Both lines are glyphosate resistant and have been classified as maturity group 3, with white or purple flowers and grey pubescence. The following treatments were used:
Treatment 1: No glyphosate spray before or after inoculation
Treatment 2: One application of glyphosate (48 oz./A) ([…] of active ingredient) three days before inoculation
Treatment 3: Twice the amount of glyphosate as in Treatment 2 (96 oz./A) ([…] of active ingredient) applied three days before inoculation
Treatment 4: One application of glyphosate (48 oz./A) three days before inoculation, and one application (48 oz./A) (1.5 kg/ha of active ingredient) when symptoms of soybean rust first appeared.
Treatment 5: No glyphosate spray before inoculation, and one application (48 oz./A) (1.5 kg/ha of active ingredient) when symptoms of soybean rust first appeared.

With `O=C(O)CNCP(=O)(O)O` [glyphosate, N-phosphonomethylglycine], the Yield in assay [1] (Davenport) amounted to 29.1 bu/acre; in assay [1] (Lind) it was 14.2 bu/acre; in assay [1] (Pullman), 55.6 bu/acre; in assay [2] (Davenport), 28.7 bu/acre; in assay [2] (Lind) it was 14.4 bu/acre; in assay [2] (Pullman), 57.0 bu/acre. The Yield was found to be 49.0 bu/acre in assay [3] (inoculation Ggt), 44.9 bu/acre in assay [3] (inoculation None) and 40.0 bu/acre in assay [3] (inoculation Rhizoctonia). Besides, the “yield of glyphosate-resistant wheat lines” value in assay [1] (in the absence of additional pathogen inoculum) is recorded as “increases yield”. Further, the “yield versus untreated and Buctril/Harmony treated glyphosate sensitive wheat” value in assay [2] (glyphosate resistant, Ggt inoculated wheat, each location) is reported as “significantly superior (P<0.05)”. Also, the stripe rust symptoms entry in assay [3] (Bobwhite cultivars under severe stripe rust conditions) is reported as “only moderate stripe rust symptoms”. For the same compound, in assay [3] (regardless of what pathogen had been introduced), the “yields of glyphosate resistant Bobwhite NILs” value was “superior yields”. For the same compound, the “effect on soy rust” value in assay [4] (treatments 2 and 3: 48 oz./A or 96 oz./A three days before inoculation) is listed as “dose-dependent effect on soy rust”. The “effect on soybean infected with soy rust” value in assay [4] (treatments 4 and 5: 48 oz./A when symptoms of soybean rust first appeared) is on record as “curative effect”.
